In PMC7932537, “Quantitative profiling of protease specificity” (PLoS Computational Biology, 2021):

Columns and labels:
MMP-2 [1] = experiment: Substrate phage display with NGS: relative probability (RP) of P3-P1' tetramer clusters; assay type: biochemical, human; conditions: MMP2;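 also: ratio of tetramer probability after protease selection to that in naive phage library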
MMP-2 [2] = molecular target: T1, MMP-2 (Homo sapiens, UniProt P08253); experiment: K(obs) of individual phage substrates (set of 1369); assay type: biochemical; conditions: MMP2
T1 sequence (P08253 110-660): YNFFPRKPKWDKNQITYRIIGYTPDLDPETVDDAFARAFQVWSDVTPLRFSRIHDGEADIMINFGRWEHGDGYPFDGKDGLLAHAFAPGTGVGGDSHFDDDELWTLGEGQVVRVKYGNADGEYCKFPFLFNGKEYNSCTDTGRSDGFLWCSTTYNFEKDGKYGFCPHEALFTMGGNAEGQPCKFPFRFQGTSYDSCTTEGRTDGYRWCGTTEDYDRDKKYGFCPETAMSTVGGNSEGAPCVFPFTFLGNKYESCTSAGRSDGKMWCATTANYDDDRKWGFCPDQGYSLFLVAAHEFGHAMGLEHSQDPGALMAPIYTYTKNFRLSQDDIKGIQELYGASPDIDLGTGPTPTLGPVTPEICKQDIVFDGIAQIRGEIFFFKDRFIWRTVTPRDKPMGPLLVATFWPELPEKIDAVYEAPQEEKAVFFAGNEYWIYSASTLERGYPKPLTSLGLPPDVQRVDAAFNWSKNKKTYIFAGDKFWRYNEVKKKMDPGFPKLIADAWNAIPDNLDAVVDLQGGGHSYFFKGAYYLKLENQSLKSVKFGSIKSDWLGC

MMP-9 = MMP-9 (Homo sapiens, UniProt P14780); experiment: as above; assay type: biochemical; conditions: MMP9
Sequence of MMP-9 (P14780 94-707): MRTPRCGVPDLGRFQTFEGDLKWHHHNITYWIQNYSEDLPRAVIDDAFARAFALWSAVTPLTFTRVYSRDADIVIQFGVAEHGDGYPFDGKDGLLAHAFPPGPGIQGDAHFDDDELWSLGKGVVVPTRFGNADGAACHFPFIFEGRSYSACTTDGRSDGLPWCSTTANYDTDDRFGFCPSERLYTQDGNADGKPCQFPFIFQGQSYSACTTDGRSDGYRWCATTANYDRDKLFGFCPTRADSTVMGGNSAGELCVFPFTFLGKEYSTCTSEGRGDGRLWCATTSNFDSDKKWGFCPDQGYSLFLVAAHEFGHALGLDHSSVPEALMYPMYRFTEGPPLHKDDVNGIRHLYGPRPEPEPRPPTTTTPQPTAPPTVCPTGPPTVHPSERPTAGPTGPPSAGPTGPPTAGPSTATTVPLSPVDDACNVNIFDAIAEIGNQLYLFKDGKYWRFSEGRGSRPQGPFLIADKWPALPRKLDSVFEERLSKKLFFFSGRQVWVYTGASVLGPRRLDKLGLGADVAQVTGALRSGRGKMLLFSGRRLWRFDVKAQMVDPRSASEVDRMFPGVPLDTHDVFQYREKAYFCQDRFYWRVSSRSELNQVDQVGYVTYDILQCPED

[3] = RP of the P3-P1' tetramer contained in the substrate
[4] = individual phage substrate of the set of 1369 peptides, cleavage position marked by '-'
[5] = individual phage substrate of the set of 1369 peptides, dash in the sequence marks the cleavage position
[6] = RP of the P3-P1' tetramer contained in the substrate (substrate phage display with NGS)
[7] = individual phage substrates, set of 1369 peptides, cleavage position marked by hyphen in sequence
[8] = individual phage substrates, set of 1369 peptides, hyphen in sequence marks cleavage position

Substance | relative probability (RP) (MMP-2 [1]; [3]) | Kobs (MMP-2 [2]; [4]) [M⁻¹ s⁻¹] | Kobs (MMP-9; [5]) [M⁻¹ s⁻¹] | relative probability (RP) (MMP-2 [1]; [6]) | Kobs (MMP-2 [2]; [7]) [M⁻¹ s⁻¹] | Kobs (MMP-9; [8]) [M⁻¹ s⁻¹]
HTSNW-LTASG | 9.68 | 3079.62 | 451.441 |  |  | 
HVWMN-LTASG | 0 | 418.952 | 619.843 |  |  | 
HWPVG-LTASG |  |  |  | 35.2016 | 2837.92 | 3079.62
HYPLN-STASG | 18.9358 | 4335.13 | 8321.48 |  |  | 
IAFSQ-LTASG |  |  |  | 9.065 | 6688.74 | 0
IDTRW-YTASG | 6.7229 | 3344.37 | 2344.36 |  |  | 
IEAWS-LTASG |  |  |  | 7.006 | 762.325 | 7015.91
IGALA-LTASG | 22.1184 | 12792.1 | 12792.1 |  |  | 
IGPQF-LTASG | 26.3159 | 12792.1 | 12792.1 |  |  | 
IPAFN-LTASG |  |  |  | 16.2959 | 10866.7 | 12792.1
IPLLN-LTASG |  |  |  | 8.579 | 12792.1 | 1870.4
ISVNY-LTASG |  |  |  | 8.427 | 3637.04 | 323.705
ISWLN-LTASG |  |  |  | 0.1218 | 1112.44 | 386.839
KAVNH-LTASG | 12.8499 | 1763.55 | 0 |  |  | 
KDYLH-LTASG | 0.4077 | 0 | 0 |  |  | 
KFWFN-LTASG | 0 | 0 | 0 |  |  | 
KGPEM-LTASG |  |  |  | 16.0599 | 3637.04 | 5667.28
KKWRG-LTASG | 23.375 | 3079.62 | 6688.74 |  |  | 
KLGRA-LTASG | 7.944 | 2615.58 | 4763.33 |  |  | 
KMPSF-LTASG |  |  |  | 29.537 | 8321.48 | 8941.32

Substance | relative probability (RP) (MMP-2 [1]; [3]) | Kobs (MMP-2 [2]; [4]) [M⁻¹ s⁻¹] | Kobs (MMP-9; [5]) [M⁻¹ s⁻¹] | relative probability (RP) (MMP-2 [1]; [6]) | Kobs (MMP-2 [2]; [7]) [M⁻¹ s⁻¹] | Kobs (MMP-9; [8]) [M⁻¹ s⁻¹]
KMVYM-LTASG |  |  |  | 5.094 | 1561.44 | 3438.54
KSPLG-LTASG |  |  |  | 35.3536 | 4470.66 | 10866.7
KSPSL-YTASG | 18.1013 | 4335.13 | 5090.5 |  |  | 
KSPVF-LTASG | 21.7568 | 9740.44 | 6688.74 |  |  | 
KTVVW-YTASG | 9.938 | 3165.09 | 3850.82 |  |  | 
KTWRN-LTASG | 6.7583 | 690.17 | 0 |  |  | 
KWVSM-LTASG |  |  |  | 23.0821 | 12792.1 | 1870.4
LAWAH-ITASG | 0.05752 | 1030.73 | 0 |  |  | 
LLFSQ-LTASG |  |  |  | 9.065 | 8941.32 | 0
LLYAS-LTASG |  |  |  | 26.9916 | 12792.1 | 990.764
LLYMG-LTASG |  |  |  | 0.09823 | 874.197 | 799.117
LNPAF-LTASG | 32.4224 | 12792.1 | 8941.32 |  |  | 
LPYFS-MTASG |  |  |  | 0.06612 | 386.839 | 1660.66
LQSMN-LTASG |  |  |  | 2.165 | 0 | 1239.69
LSHAW-LTASG |  |  |  | 27.1428 | 12792.1 | 56.119
LSVFW-LTASG | 13.7679 | 12792.1 | 12792.1 |  |  | 
LTPRY-WTASG |  |  |  | 20.9965 | 5269.78 | 5461.43
LVGNS-LTASG |  |  |  | 0.2884 | 1981.53 | 0
LVGRA-LTASG | 7.944 | 6688.74 | 2476.66 |  |  | 
LWYGH-LTASG |  |  |  | 11.3746 | 5090.5 | 0

Substance | relative probability (RP) (MMP-2 [1]; [3]) | Kobs (MMP-2 [2]; [4]) [M⁻¹ s⁻¹] | Kobs (MMP-9; [5]) [M⁻¹ s⁻¹] | relative probability (RP) (MMP-2 [1]; [6]) | Kobs (MMP-2 [2]; [7]) [M⁻¹ s⁻¹] | Kobs (MMP-9; [8]) [M⁻¹ s⁻¹]
MGMWH-LTASG |  |  |  | 0.2013 | 0 | 142.481
MKWAA-YTASG | 15.6012 | 12792.1 | 585.336 |  |  | 
MNWES-LTASG |  |  |  | 0.6249 | 517.582 | 0
MSLGN-LTASG |  |  |  | 33.3542 | 12792.1 | 292.668
MSLGY-LTASG | 24.8925 | 12792.1 | 0 |  |  | 
MSPRW-LTASG | 34.1809 | 12792.1 | 12792.1 |  |  | 
MSWSA-LTASG | 25.8217 | 12792.1 | 113.394 |  |  | 
MVPKW-LTASG | 29.287 | 7815.03 | 10866.7 |  |  | 
NHVWP-LTASG | 5.294 | 1154.21 | 726.013 |  |  | 
NKVYA-WTASG |  |  |  | 0.6193 | 799.117 | 1711.63
NMWAH-LTASG |  |  |  | 7.453 | 3079.62 | 323.705
NRFSN-LTASG |  |  |  | 24 | 8941.32 | 0
NRLSH-WTASG |  |  |  | 23.1226 | 12792.1 | 912.511
NRPAS-WTASG |  |  |  | 32.4643 | 12792.1 | 3253.29
NRVEM-LTASG | 2.124 | 261.974 | 0 |  |  | 
NSPLS-YTASG | 31.2477 | 8321.48 | 12792.1 |  |  | 
NTPNW-LTASG |  |  |  | 26.5667 | 10866.7 | 6131.32
NTSAW-LTASG |  |  |  | 18.9346 | 6688.74 | 386.839
